US20190338294A1, “ORTHOGONAL TRANSCRIPTIONAL SWITCHES DERIVED FROM TET REPRESSOR HOMOLOGS FOR SACCHAROMYCES CEREVISIAE” (The Johns Hopkins University, priority 2016, published 2019)
Read-outs that look alike come from different tables or passages of the source.

How the values were obtained:
lmrTAv2 (=NLS-lmrA-VP16) = test: Lmr-Offv2 switch candidate, GFP reporter (strain lmr/yxaG-lmrTAv2); format: cell-based, Bacillus subtilis; settings: Quercetin 0.13 μM, Fisetin 0.19 μM, Coumesterol 0.22 μM, On w/o drug
ethTA(=NLS-ethR-VP16) = format: cell-based, Mycobacterium tuberculosis; settings: 2-Benzyl acetate 0.01%, On w/o drug
NLS-PhlF = test: DAPG-On system with ADE2 reporter, spot growth on SC-Ade (strains AphOx-2μPhlF); settings: 5 μM DAPG; hardly grew on DAPG-free SC-Ade
Procedure: Cells were cultured for 1 day at 30° C. in SC-Leu-His (FIG. 6A), SC-Leu-His-Ade (FIG. 6B), SC-Leu-His with 24-μM DAPG (FIG. 6C), and SC-Leu-His-Ade with 24-μM DAPG (FIG. 6D). The cells were diluted 10-fold stepwise across each row.
The performance of the DAPG-On system was assessed using ADE2 as a reporter in the ade2Δ BY11204 strain.

BY4741 [1] = settings: cited from earlier work
cymTA(=NLS-cymR-VP16) = target: T1, cymTA(=NLS-cymR-VP16) (Pseudomonas putida, UniProt O33453); test: Cumate-Off switch, GFP reporter (strain cymG-TA); format: cell-based; settings: SC with 25-μM doxycycline, 25-μM D-camphor, 48-μM DAPG or 150-μM p-cumate
T1 construct: (cymTA in pSIB470); expressed in transfected cells; host or cells: Saccharomyces cerevisiae BY4741, integrated pSIB470 (strain cymG-TA)
T1 sequence (O33453 other isoform, or with tags, fused parts or gaps): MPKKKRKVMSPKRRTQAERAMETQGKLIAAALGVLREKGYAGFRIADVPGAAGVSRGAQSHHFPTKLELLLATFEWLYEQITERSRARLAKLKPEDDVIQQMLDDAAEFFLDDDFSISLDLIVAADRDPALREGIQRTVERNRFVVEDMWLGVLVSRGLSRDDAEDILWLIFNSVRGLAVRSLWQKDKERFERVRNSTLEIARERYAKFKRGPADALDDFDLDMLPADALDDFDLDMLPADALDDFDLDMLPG

phlTA (=phlF-VP16) [2] = test: DAPG-Off system with ADE2 reporter, spot growth on SC-Ade (strain phlA-TA); settings: 24 μM DAPG, 2 days at 30° C.
Procedure: FIG. 3A-FIG. 3D is a series of photographs showing the evaluation of the DAPG-Off system using the ADE2 gene (CDS) as a reporter. Cells were cultured for 2 days at 30° C. in SC (FIG. 3A), SC-Ade (FIG. 3B), SC with 24 μM of DAPG (FIG. 3C), and SC-Ade with 24-DAPG (FIG. 3D). Cells were diluted 10-fold stepwise across each row.
A second reporter gene was used to further assess the performance of the DAPG-Off switch. Here, it was examined whether the ADE2 gene under the control of phlPr complements the adenine-auxotrophy of strain BY11204 in a DAPG-dependent manner (FIG. 3A-FIG. 3D).
phlTA (=phlF-VP16) [3] = test: DAPG-Off switch, GFP reporter, flow cytometry (strain DapG-TA); format: cell-based, Pseudomonas; settings: for GFP fluorescence of DapG-TA: compared with BY4741 (background); for intensity of reporter GFP fluorescence, DAPG-Off switch: SC with 25-μM doxycycline, 25-μM D-camphor, 48-μM DAPG or 150-μM p-cumate
camTA (=camR-VP16-NLS) = test: Camphor-Off switch, GFP reporter, orthogonality test; format: cell-based, Pseudomonas putida; settings: SC with 25-μM doxycycline, 25-μM D-camphor, 48-μM DAPG or 150-μM p-cumate
BY4741 [4] = test: Effects of DAPG on plating efficiency of BY4741; format: cell-based, Saccharomyces cerevisiae; settings: 2 days
Procedure: FIG. 2 is a bar graph showing the effects of DAPG on plating efficiency of BY4741. Yeast strain BY4741 overnight culture in SC medium was diluted 25,000-fold, and 100 μl was spread on SC, and SC containing 24-μM or 48 μM of DAPG. The number of colonies formed was counted after 2 days. The values were means and standard deviations calculated from three experiments.

tTA (=tetR-VP16) = target: T2, tTA (=tetR-VP16) (Escherichia coli, UniProt P04483); test: Tet-Off switch, GFP reporter, orthogonality test; format: cell-based; settings: SC with 25-μM doxycycline, 25-μM D-camphor, 48-μM DAPG or 150-μM p-cumate
T2 construct: expressed in transfected cells; host or cells: Saccharomyces cerevisiae BY4742, integrated pSIB527 (strain TetOffG)

varTA (=varR-VP16) = test: Var-Off switch candidate, GFP reporter (strain varG-TA); format: cell-based, Streptomyces virginae; settings: Virginiamycin S1 2 mM, On w/o drug
icaTA (=icaR-VP16) = test: IcaR-Off switch candidate, GFP reporter (strain icaG-TA); format: cell-based, Staphylococcus epidermidis; settings: Gentamicin 10 mM, On w/o drug

For `O=c1c(O)c(-c2ccc(O)c(O)c2)oc2cc(O)cc(O)c12` [Quercetin], the “Expression of GFP with drug” value (lmrTAv2 (=NLS-lmrA-VP16)) was “On” and the “Expression of GFP with drug” value (lmrTAv2 (=NLS-lmrA-VP16); listed as quercetin) was “not ligand (quercetin)-responsive”.
For `CC(=O)OCc1ccccc1` [2-Benzyl acetate], the “Expression of GFP with drug” value (ethTA(=NLS-ethR-VP16)) was “On” and the “Expression of GFP with drug” value (ethTA(=NLS-ethR-VP16); listed as 2-benzyl acetate) was “solid ligand-independent GFP fluorescence”.
With `O=c1oc2cc(O)ccc2c2oc3cc(O)ccc3c12` [Coumesterol] the “Expression of GFP with drug” value (lmrTAv2 (=NLS-lmrA-VP16)) was “On”.
For `CC(=O)c1c(O)cc(O)c(C(C)=O)c1O` [DAPG, 2,4-diacetylphloroglucinol], the “growth of strains AphOx-2μPhlF on SC-Ade medium” value (NLS-PhlF) is given as “vigorous growth”, the “growth of BY4741” value (BY4741 [1]; 10-μg/ml DAPG (Kwak et al., 2011)) is given as “did not inhibit growth” and the “growth of cells of BY4741 background” value (BY4741 [1]; higher concentrations than 10-μg/ml DAPG (Troppens et al., 2013)) is given as “did show sensitivity”. For the same molecule, the “intensity of reporter GFP fluorescence, Cumate-Off switch” value (cymTA(=NLS-cymR-VP16)) was “strong GFP signal”, the “growth of phlA-TA strain on SC-Ade medium” value (phlTA (=phlF-VP16) [2]) was “did not grow” and the “culture time over which GFP fluorescence reduced to background levels” value (phlTA (=phlF-VP16) [3]; 48 μM DAPG, strain DapG-TA) was 14 h. The “GFP fluorescence of DapG-TA” value (phlTA (=phlF-VP16) [3]; 12-μM DAPG in SC) was “higher than that of the BY4741 control strain”, the “GFP fluorescence of DapG-TA” value (phlTA (=phlF-VP16) [3]; 48-μM DAPG in SC) was “decreased to the same level as BY4741” and the “intensity of reporter GFP fluorescence, DAPG-Off switch” value (phlTA (=phlF-VP16) [3]) was “decreased to the background level”. The “intensity of reporter GFP fluorescence, Camphor-Off switch” value (camTA (=camR-VP16-NLS)) was “lowered GFP fluorescence”, the “number of colonies formed” value (BY4741 [4]; SC with 24-μM (5-μg/ml) DAPG vs SC without DAPG) was “little difference” and the “number of colonies formed” value (BY4741 [4]; SC with 48-μM (10-μg/ml) DAPG vs SC without DAPG) was “little difference”. The “intensity of reporter GFP fluorescence, Tet-Off switch” value (tTA (=tetR-VP16)) was “lowered GFP fluorescence”.
In the case of `CC[C@H]1NC(=O)[C@@H](NC(=O)c2ncccc2O)[C@@H](C)OC(=O)[C@H](c2ccccc2)NC(=O)[C@@H]2CC(=O)CCN2C(=O)[C@H](Cc2ccccc2)N(C)C(=O)[C@@H]2CCCN2C1=O` [Virginiamycin S1], the “Expression of GFP with drug” value (varTA (=varR-VP16)) was “On” and the “Expression of GFP with drug” value (varTA (=varR-VP16); listed as virginiamycin S) was “strong GFP expression”.
For Gentamicin, the “Expression of GFP with drug” value (icaTA (=icaR-VP16)) was “On” and the “Expression of GFP with drug” value (icaTA (=icaR-VP16); listed as gentamicin) was “solid ligand-independent GFP fluorescence”.
For `O=c1c(O)c(-c2ccc(O)c(O)c2)oc2cc(O)ccc12` [Fisetin], the “Expression of GFP with drug” value (lmrTAv2 (=NLS-lmrA-VP16)) was “On”.
With D-camphor the “intensity of reporter GFP fluorescence, Cumate-Off switch” value (cymTA(=NLS-cymR-VP16)) was “strong GFP signal”, the “intensity of reporter GFP fluorescence, DAPG-Off switch” value (phlTA (=phlF-VP16) [3]) was “strong GFP signal” and the “intensity of reporter GFP fluorescence, Camphor-Off switch” value (camTA (=camR-VP16-NLS)) was “decreased to the background level”. The “intensity of reporter GFP fluorescence, Tet-Off switch” value (tTA (=tetR-VP16)) was “strong GFP signal”.
